Read-outs that look alike come from different tables or passages of the source.
How the values were obtained:
[1] = plasma pharmacokinetics after a single i.p. dose; format: in vivo; conditions: male, C57BL/6 J, ip, mouse; for AUC(0-t): read-out: AUC 0-24, plasma
Method: (§1) Plasma samples were prepared by mixing 5.0 μl of plasma with 45 μl of ice-cold MeOH followed by centrifugation at 15,000 × g for 15 min to remove protein. The resulting supernates were transferred into autosampler vials for analysis. Tissues (liver, intestine, kidney, pancreas, spleen, lung, heart, testis, white adipose tissue, gastrocnemius and brain) were weighed and homogenized in H2O/MeOH (1:1 v/v, 100 mg tissue in 600 μl). A volume of 200 μl of MeOH was added to 100 μl of tissue extracts. After vortexing and centrifugation (15 min at 15,000 × g), each supernate was transferred to an autosampler vial and 5.0 μl was injected to a system combining ultra-high performance liquid chromatography (UHPLC) and quadrupole time of flight mass spectrometry (QTOFMS) for analysis. The concentration of STO-609 was calculated based on standard curves in the corresponding matrices. The pharmacokinetic parameters were calculated using non-compartmental analysis with PKSolver[20]. The linear trapezoidal rule was used for area under the curve (AUC) calculation.
(§2) Separation of STO-609 and its metabolites was achieved using a LC-QTOFMS system (Agilent Technologies, Santa Clara, CA) equipped with a 100 mm × 2.1 mm (Agilent XDB C18) column as previously described. Briefly, the column temperature was maintained at 45 °C. The flow rate was maintained at 0.3 ml/min with a gradient ranging from 2% to 98% aqueous acetonitrile containing 0.1% formic acid over a 15 min run. QTOFMS was operated in positive mode with electrospray ionization. Ultra high pure nitrogen was applied as the drying (12 L/min) and collision gas. The drying gas temperature was set at 325°C and nebulizer pressure was maintained at 35 psi. Capillary voltages were set at 3.5 kV. During mass spectrometry, real time mass correction and accurate mass were achieved by continuously measuring standard reference ions at m/z 121.0508, 922.0098 in the positive mode. The MS/MS of STO-609 and its metabolites was performed in targeted mode with a default isolation width of 4 m/z and collision energy ramp ranging from 20 to 50 V. Mass chromatograms and mass spectra were acquired by MassHunter® Workstation data Acquisition software (Agilent, Santa Clara, CA) in centroid and profile formats from m/z 100 to 1000. The acquisition rate was set as 1.5 spectra per second. Statistical analysis was conducted using Student’s independent t-test. Data are presented as mean ± s.e.m.

[2] = tissue distribution after a single i.p. dose; format: in vivo; conditions: ip, 30 μM/kg i.p., mouse; for Cmax: 30 μM/kg
Method: as §1, §2

O=C(O)c1ccc2c3c1cccc3c(=O)n1c3ccccc3nc21 [STO-609^S]
AUC(0-inf) ([1]; 30 μM/kg i.p.): 317 µM·h | CL/F ([1]; 30 μM/kg i.p.): 1.5 mL/min/kg | Cmax ([1]; 30 μM/kg i.p.): 32600 nM | AUC(0-t) ([1]; 30 μM/kg i.p.): 245 µM·h | half-life ([1]; 30 μM/kg i.p., read-out: t½, plasma (converted)): 12.2 h | AUC(0-inf) ([1]; 300 μM/kg i.p.): 3250 µM·h | CL/F ([1]; 300 μM/kg i.p.): 1.5 mL/min/kg | Cmax ([1]; 300 μM/kg i.p.): 473000 nM | AUC(0-t) ([1]; 300 μM/kg i.p.): 2930 µM·h | half-life ([1]; 300 μM/kg i.p., read-out: t½, plasma (converted)): 7.93 h | half-life ([1]; 30 and 300 μM/kg i.p., read-out: t½, plasma, over the doses): 8 to 12 h | half-life ([2]; C57BL/6J, intestine, read-out: t½, intestine (converted)): 3.85 h | half-life ([2]; C57BL/6J, kidney, read-out: t½, kidney (converted)): 8.5 h | Cmax ([2]; C57BL/6J, intestine, read-out: Cmax, intestine): 517 nM | Cmax ([2]; C57BL/6J, intestine, read-out: Cmax, intestine (text)): ~500 nM | Cmax ([2]; C57BL/6J, pancreas, read-out: Cmax, pancreas): 329 nM | half-life ([2]; C57BL/6J, pancreas, read-out: t½, pancreas (converted)): 3.18 h | half-life ([2]; C57BL/6J, spleen, read-out: t½, spleen (converted)): 4 h | half-life ([2]; male, C57BL/6 J, brain, read-out: t½, brain (converted)): 5.21 h | half-life ([2]; male, C57BL/6 J, gastrocnemius, read-out: t½, gastrocnemius (converted)): 5.83 h | half-life ([2]; male, C57BL/6 J, heart, read-out: t½, heart (converted)): 3.01 h | half-life ([2]; male, C57BL/6 J, liver, read-out: t½, liver (converted)): 3.74 h | half-life ([2]; male, C57BL/6 J, lung, read-out: t½, lung (converted)): 3.24 h | Cmax ([2]; male, C57BL/6 J, gastrocnemius, read-out: Cmax, gastrocnemius): 84 nM | Cmax ([2]; male, C57BL/6 J, heart, read-out: Cmax, heart): 293 nM | Cmax ([2]; male, C57BL/6 J, spleen, read-out: Cmax, spleen): 341 nM | Cmax ([2]; male, C57BL/6 J, testis, read-out: Cmax, testis): 209 nM | Cmax ([2]; male, C57BL/6 J, white adipose tissue, read-out: Cmax, white adipose tissue): 137 nM | half-life ([2]; male, C57BL/6 J, testis, read-out: t½, testis (converted)): 3.95 h | half-life ([2]; male, C57BL/6 J, white adipose tissue, read-out: t½, white adipose tissue (converted)): 3.93 h

Reference: publication PMC5603587, “Pharmacological inhibition of CaMKK2 with the selective antagonist STO-609 regresses NAFLD” (Scientific Reports, 2017)
